Reference: PMC5360941, “Simultaneous Determination and Pharmacokinetic Study of Quercetin, Luteolin, and Apigenin in Rat Plasma after Oral Administration of Matricaria chamomilla L. Extract by HPLC-UV” (Evidence-based Complementary and Alternative Medicine : eCAM, 2017)

Assays:
[1] = Stability of the analytes in rat plasma (QC samples under different storage conditions); type: in vitro ADME; conditions: for Stability in plasma (in words): plasma stored at 20°C for 24 h, −20°C for 30 days, and after three freeze-thaw cycles, low, medium, high concentrations, stable = 85–115% of initial; for Freeze-thaw stability, found conc. / Short-term stability, found conc. / Long-term stability, found conc.: rat plasma, n = 6; for Freeze-thaw stability, found conc.: 3 freeze-thaw cycles; for Short-term stability, found conc.: 24 h at room temperature; for Long-term stability, found conc.: 30 days at −20°C
Experimental: QC samples were prepared in the same way as the calibration samples, representing three different level concentrations (low, medium, and high) of quercetin in plasma at 0.57, 2.84, and 9.09 μg/ml, luteolin at 0.56, 2.80, and 8.96 μg/ml, and apigenin at 0.53, 2.65, and 8.48 μg/ml, respectively. The stability of the analytes in plasma was investigated by determining QC plasma samples of the three concentration levels under different storage conditions: 24 h at room temperature, three freeze (−20°C) and thaw (room temperature) cycles, stored at −20°C for 30 days. They were considered stable when 85–115% of the initial concentrations were got. All stability testing QC samples were determined by using the calibration curve of freshly prepared standard samples.

[2] = Pharmacokinetic study in rats after oral administration of M. chamomilla extract (HPLC-UV of plasma); type: in vivo, Male Sprague-Dawley rats; conditions: oral M. chamomilla extract (quercetin 8.51 mg/kg, luteolin 56.49 mg/kg, apigenin 13.82 mg/kg), mean ± SD; for AUC(0-inf) / AUC(0-t) / Cmax / Tmax / half-life: male, Sprague-Dawley, rat; for AUC(0-inf) / T1/2, elimination half-life: n = 6; for AUC(0-t): n = 6, read-out: AUC0–12; for Cmax: n = 6, read-out: Cmax, maximum plasma concentration; for Tmax: noncompartmental, n = 6, read-out: Tmax, time to reach the maximum plasma concentration; for half-life: po, n = 6, read-out: T1/2, elimination half-life (converted)
Experimental: All analyses were performed on a Shimadzu HPLC system, equipped with LC-20AT pump, a Shimadzu SCL-10A system controller, and a SPD-20A DAD-UV detector. The HPLC analysis was performed on an Agilent Eclipse XDB-C18 column (250 mm × 4.6 mm, 5 μm) with a mobile phase consisting of methanol and 0.2% phosphoric acid (50 : 50, v/v) with a constant rate of 1.0 ml/min. The injection volume was 10 μl and the column temperature was set at 25°C. The wavelength was set at 350 nm for quantitative analysis; the proportion of components in the mobile phase was optimized to obtain a well separation of quercetin, luteolin, apigenin, and kaempferol (IS).
An aliquot of 100 μL rat plasma was transferred to a 1.5 mL plastic tube to which was added 10 μL IS (22.52 μg/ml) for processing. After being vortex-mixed for 30 seconds, the plasma sample was then extracted with 800 μl of ethyl acetate and centrifuged at 18000g for 10 min, where ethyl acetate acted as a deproteinization-extraction agent. The procedure of extraction was performed two times. The organic layer was dried at 40°C under nitrogen stream. The residue was reconstituted in 100 μL of methanol solution, vortexed for 1 min, and centrifuged at 18000g for 10 min. The supernatant transferred to a glass insert, and 10 μL of the sample was injected into the HPLC column for analysis. The method of sample preparation was also applied for determination of accuracy, precision, and recovery.
Male Sprague-Dawley rats (body weight 160 ± 20 g) were purchased from Beijing Vital River Laboratory Animal Technology (Beijing, China). Rats were housed in a temperature- and humidity-controlled environment (25°C, 65% RH) and maintained on a 12-hour light/dark cycle for 3 days with free access to food and water before starting the experiment. The animal experiments were performed in accordance with the principles of the International Guide for the Care and Use of Laboratory Animals and were approved by the Committee on Animal Care and Usage of the Beijing University of Chinese Medicine (number SYXK 2011-0024).
The extracts of M. chamomilla (quercetin was 8.51 mg/kg, luteolin was 56.49 mg/kg, and apigenin was 13.82 mg/kg) freshly prepared in 0.5% CMC-Na solution were orally administered to six rats. Blood samples (0.5 mL) were collected from the ocular fundus veins of rats before administration and after 10, 20, 30, and 45 min and 1, 1.5, 2, 4, 6, 8, and 12 h after oral administration of M. chamomilla extract. The plasma was immediately centrifuged at 3200g for 10 min to separate out plasma and then stored frozen at −20°C until analysis.
The pharmacokinetic parameters of quercetin, luteolin, and apigenin were calculated by Kinetica 4.4 software (Thermo Scientific, USA). Noncompartmental analysis was used to determine standard pharmacokinetic parameters of analytes. All the results were expressed as means ± standard deviation (SD) of six replicates.

[3] = high QC (spiked 9.09 quercetin, 8.96 luteolin, 8.48 apigenin μg/ml)
[4] = low QC (spiked 0.57 quercetin, 0.56 luteolin, 0.53 apigenin μg/ml)
[5] = medium QC (spiked 2.84 quercetin, 2.80 luteolin, 2.65 apigenin μg/ml)

O=c1c(O)c(-c2ccc(O)c(O)c2)oc2cc(O)cc(O)c12 [Quercetin, quercetin]
Stability in plasma (in words) [1]: stable
Freeze-thaw stability, found conc. [1, 3]: 9.24 ± 0.55 µg/mL
Freeze-thaw stability, found conc. [1, 4]: 0.63 ± 0.01 µg/mL
Freeze-thaw stability, found conc. [1, 5]: 3.09 ± 0.09 µg/mL
Short-term stability, found conc. [1, 3]: 9.15 ± 0.69 µg/mL
Short-term stability, found conc. [1, 4]: 0.63 ± 0.01 µg/mL
Short-term stability, found conc. [1, 5]: 3.09 ± 0.18 µg/mL
Long-term stability, found conc. [1, 3]: 9.59 ± 0.53 µg/mL
Long-term stability, found conc. [1, 4]: 0.62 ± 0.03 µg/mL
Long-term stability, found conc. [1, 5]: 3.10 ± 0.16 µg/mL
AUC(0-inf) [2]: 3880 ± 1000 ng·h/mL
AUC(0-t) [2]: 1790 ± 290 ng·h/mL
Cmax [2]: 290 ± 60 ng/mL
Tmax [2]: ~47.4 min
half-life [2]: ~816 min

O=c1cc(-c2ccc(O)c(O)c2)oc2cc(O)cc(O)c12 [Luteolin, luteolin]
Stability in plasma (in words) [1]: stable
Freeze-thaw stability, found conc. [1, 3]: 8.56 ± 0.54 µg/mL
Freeze-thaw stability, found conc. [1, 4]: 0.62 ± 0.02 µg/mL
Freeze-thaw stability, found conc. [1, 5]: 2.91 ± 0.15 µg/mL
Short-term stability, found conc. [1, 3]: 8.96 ± 0.76 µg/mL
Short-term stability, found conc. [1, 4]: 0.62 ± 0.01 µg/mL
Short-term stability, found conc. [1, 5]: 2.94 ± 0.14 µg/mL
Long-term stability, found conc. [1, 3]: 8.99 ± 0.65 µg/mL
Long-term stability, found conc. [1, 4]: 0.61 ± 0.03 µg/mL
Long-term stability, found conc. [1, 5]: 2.92 ± 0.15 µg/mL
AUC(0-inf) [2]: 19900 ± 5060 ng·h/mL
AUC(0-t) [2]: 16000 ± 2380 ng·h/mL
Cmax [2]: 3040 ± 600 ng/mL
Tmax [2]: ~25.2 min
half-life [2]: ~266 min
T1/2, elimination half-life [2]: 4.43 ± 1.84 h

O=c1cc(-c2ccc(O)cc2)oc2cc(O)cc(O)c12 [Apigenin, apigenin]
Stability in plasma (in words) [1]: stable
Freeze-thaw stability, found conc. [1, 3]: 7.87 ± 0.50 µg/mL
Freeze-thaw stability, found conc. [1, 4]: 0.48 ± 0.02 µg/mL
Freeze-thaw stability, found conc. [1, 5]: 2.60 ± 0.14 µg/mL
Short-term stability, found conc. [1, 3]: 8.31 ± 0.72 µg/mL
Short-term stability, found conc. [1, 4]: 0.50 ± 0.04 µg/mL
Short-term stability, found conc. [1, 5]: 2.64 ± 0.16 µg/mL
Long-term stability, found conc. [1, 3]: 8.27 ± 0.62 µg/mL
Long-term stability, found conc. [1, 4]: 0.46 ± 0.04 µg/mL
Long-term stability, found conc. [1, 5]: 2.61 ± 0.13 µg/mL
AUC(0-inf) [2]: 5030 ± 1720 ng·h/mL
AUC(0-t) [2]: 2910 ± 740 ng·h/mL
Cmax [2]: 420 ± 110 ng/mL
Tmax [2]: ~30.6 min
half-life [2]: ~529 min
T1/2, elimination half-life [2]: 8.82 ± 4.15 h
